The text below walks through data of patent US12202844B2, “MAP4K1 inhibitors” (Blueprint Medicines Corporation, priority 2021, dated 2025).

The target of the assay is T1, MAP4K1 (HPK1) (Homo sapiens, UniProt Q92918).
T1 construct: purchased Invitrogen
T1 sequence (Q92918 whole entry): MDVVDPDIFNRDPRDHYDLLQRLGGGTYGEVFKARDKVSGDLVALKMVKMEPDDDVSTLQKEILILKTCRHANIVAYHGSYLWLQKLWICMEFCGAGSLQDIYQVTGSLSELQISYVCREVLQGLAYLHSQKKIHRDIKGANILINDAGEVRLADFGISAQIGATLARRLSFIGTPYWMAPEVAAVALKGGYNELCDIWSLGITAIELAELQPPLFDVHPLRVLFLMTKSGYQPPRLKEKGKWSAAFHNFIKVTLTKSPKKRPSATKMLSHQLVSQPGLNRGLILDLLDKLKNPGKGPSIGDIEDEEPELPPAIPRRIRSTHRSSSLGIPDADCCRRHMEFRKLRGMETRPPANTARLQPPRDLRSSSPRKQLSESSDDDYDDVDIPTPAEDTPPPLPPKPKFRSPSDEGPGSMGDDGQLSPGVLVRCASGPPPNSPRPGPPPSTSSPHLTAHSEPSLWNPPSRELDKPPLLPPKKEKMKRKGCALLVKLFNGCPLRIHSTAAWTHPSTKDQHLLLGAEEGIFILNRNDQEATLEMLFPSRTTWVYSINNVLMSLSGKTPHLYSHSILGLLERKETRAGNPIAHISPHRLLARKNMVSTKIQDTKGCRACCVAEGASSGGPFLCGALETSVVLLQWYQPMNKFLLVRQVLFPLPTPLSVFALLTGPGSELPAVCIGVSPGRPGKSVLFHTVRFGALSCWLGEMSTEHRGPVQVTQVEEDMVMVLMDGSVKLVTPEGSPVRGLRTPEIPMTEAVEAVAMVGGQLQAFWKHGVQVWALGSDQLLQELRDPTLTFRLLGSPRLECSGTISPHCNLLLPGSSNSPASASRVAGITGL
The experiment in a line: Inhibition of MAP4K1 biochemical enzymatic activity (EZReader 2 electrophoretic mobility shift). The following applies: HPK1 (Invitrogen), S6K2tide 1.5 μM, 120 min; ATP 26 μM or 1000 μM (not given). The source says: MAP4K1 (HPK1) and relevant off-target enzymatic activity was monitored using the Perkin Elmer electrophoretic mobility shift technology platform—the EZReader 2. […] Within the linear, steady-state phase of the kinase enzymatic reaction, the mixed pool of phosphorylated (product) and non-phosphorylated (substrate) peptides was passed through the microfluidic system of the PerkinElmer EZ Reader 2, under an applied electric potential difference. The presence of the phosphate group on the product peptide provided a difference in mass and charge between that of the substrate peptide, resulting in a separation of the substrate and product pools in the sample (Perrin et al. 2010). As the product and substrate peptide mixture passes the lasers within the instrument, these pools are detected (λex=488 nm, λem=568 nm) and resolved as separate peaks. The ratio between these peaks reflects the activity of the compound at that concentration, in that well, under those conditions.
Inhibitors were dissolved in 100% DMSO at a stock concentration of 10 mM. A 100×, 10-point, 4-fold serial dilution of each inhibitor was created in 100% DMSO either manually or on a Hamilton STAR liquid handler, starting at a relevant concentration, usually 1 mM. A volume of 0.130 μL of each concentration was transferred to the relevant wells of a 384-well plate (Greiner 781 201) in duplicate using a TTPLabtech Mosquito nano-litre dispenser. Using a Multidrop Combi, the remaining constituents of the kinase reaction were added to the 130 nL of dosed compound as follows (see table below for final reaction details):
Enzyme activity assays at the ^APPKM for ATP or 1 mM ATP: In each well of a 384-well plate, 0.1-15 nM of untreated enzyme was incubated in a total of 13 μL of buffer (100 mM HEPES pH 7.5, 0.015% Brij 35, 10 mM MgCl2, 1 mM DTT) with 1.5 μM fluorescent peptid and 20-1000 μM ATP, at 25° C., for 60-180 minutes in the presence or absence of a dosed concentration series of compound (1% DMSO final concentration). The kinase reactions were stopped by the addition of 70 μl of Stop buffer (100 mM HEPES pH 7.5, 0.015% Brij 35, 35 mM EDTA and 0.2% of Coating Reagent 3 (Caliper Lifesciences)). The plates were read on a Caliper EZReader 2 as described above.
(In general: A gel shift assay detects complexes by their altered migration in electrophoresis.)
Take `CC[C@@](C)(N)c1cnc(OCCCS(C)(=O)=O)c2cnc(Nc3ccc4c(n3)C(C)(C)COC4=O)cc12` [Compound 22]: the IC50 (usually the point on the concentration scale where inhibition reaches its midpoint) is 0.3 nM.

With `CC[C@@](C)(N)c1cnc(OCCCS(C)(=O)=O)c2cnc(Nc3ccc4c(n3)CC(C)(C)OC4=O)cc12` [Compound 23], the IC50 stood at 0.3 nM.

Consider `CC[C@@](C)(N)c1cnc(O[C@H]2C[C@@H](S(C)(=O)=O)C2)c2cnc(Nc3ccc4c(n3)CC(C)(C)OC4=O)cc12` [Compound 32], for which the IC50 amounted to 0.18 nM.

On to `CC[C@@](C)(N)c1cnc(O[C@H]2C[C@@H](S(C)(=O)=O)C2)c2cnc(Nc3ccc4c(n3)C(C)(C)COC4=O)cc12` [Compound 33], for which the IC50 worked out at 0.21 nM.

Regarding `CC[C@@](C)(N)c1cnc(OCCCS(C)(=O)=O)c2cnc(Nc3ccc4c(n3)C3(CC3)C(C)(C)OC4=O)cc12` [Compound 44], the IC50 is 0.19 nM.

As to `CC[C@@](C)(N)c1cnc(O[C@H](C)CCS(C)(=O)=O)c2cnc(Nc3ccc4c(n3)CC(C)(C)OC4=O)cc12` [Compound 49], the IC50 was found to be 0.31 nM.

As to `CC[C@@](C)(N)c1cnc(O[C@H](C)CCS(C)(=O)=O)c2cnc(Nc3ccc4c(n3)C(C)(C)COC4=O)cc12` [Compound 50], the IC50 is 0.56 nM.

As for `COC[C@@](C)(N)c1cnc(OCCCS(C)(=O)=O)c2cnc(Nc3ccc4c(n3)[C@@H](C)[C@H](C)OC4=O)cc12` [Compound 57], the IC50 stood at 0.53 nM.

Take `CC(C)(N)c1cnc(O[C@H]2C[C@@H](S(C)(=O)=O)C2)c2cnc(Nc3ccc4c(n3)C3(CC3)C(C)(C)OC4=O)cc12` [Compound 59]: the IC50 is 0.15 nM.

`C[C@@H]1OC(=O)c2ccc(Nc3cc4c(C(C)(C)N)cnc(O[C@H]5C[C@@H](S(=O)(=O)C6CC6)C5)c4cn3)nc2[C@H]1C` [Compound 61]: the IC50 was found to be 0.15 nM.

As to `CC[C@@](C)(N)c1cnc(O[C@H]2C[C@H](CS(C)(=O)=O)C2)c2cnc(Nc3ccc4c(n3)[C@@H](C)[C@H](C)OC4=O)cc12` [Compound 72], the IC50 was found to be 0.1 nM.

In the case of `CC[C@@](C)(N)c1cnc(O[C@H]2C[C@@H](CS(C)(=O)=O)C2)c2cnc(Nc3ccc4c(n3)[C@@H](C)[C@H](C)OC4=O)cc12` [Compound 73], the IC50 was found to be 0.24 nM.

Turning to `C[C@@H]1OC(=O)c2ccc(Nc3cc4c(C(C)(C)N)cnc(O[C@H]5C[C@H](S(=O)(=O)N(C)C)C5)c4cn3)nc2[C@H]1C` [Compound 82], the IC50 amounted to 0.35 nM.

In the case of `CCS(=O)(=O)[C@H](C)C[C@@H](C)Oc1ncc(C(C)(C)N)c2cc(Nc3ccc4c(n3)[C@@H](C)[C@H](C)OC4=O)ncc12` [Compound 89], the IC50 came out at 0.24 nM.

Take `CC[C@@](C)(N)c1cnc(O[C@H]2C[C@@H](S(C)(=O)=O)C2)c2cnc(Nc3ccc4c(n3)C3(CC3)C(C)(C)OC4=O)cc12` [Compound 100]: the IC50 stood at 0.15 nM.

With `C[C@H](C[C@@H](C)S(C)(=O)=O)Oc1ncc(C(C)(C)N)c2cc(Nc3ccc4c(n3)C3(CC3)C(C)(C)OC4=O)ncc12` [Compound 103], the IC50 was determined as 0.55 nM.

In the case of `CC[C@@](C)(N)c1cnc(O[C@H]2C[C@H](CS(C)(=O)=O)C2)c2cnc(Nc3ccc4c(n3)[C@@H](C)C(C)(C)OC4=O)cc12` [Compound 113], the IC50 was found to be 0.14 nM.

In the case of `CC[C@@](C)(N)c1cnc(O[C@H]2C[C@@H](CS(C)(=O)=O)C2)c2cnc(Nc3ccc4c(n3)[C@@H](C)C(C)(C)OC4=O)cc12` [Compound 114], the 50% inhibitory concentration (IC50) turned out to be 0.17 nM.

`CC(C)S(=O)(=O)[C@H]1C[C@@H](Oc2ncc(C(C)(C)N)c3cc(Nc4ccc5c(n4)[C@@H](C)C(C)(C)OC5=O)ncc23)C1` [Compound 116]: the IC50 turned out to be 0.09 nM.

As to `C[C@@H]1c2nc(Nc3cc4c(C(C)(C)N)cnc(O[C@H]5C[C@H](S(=O)(=O)N(C)C)C5)c4cn3)ccc2C(=O)OC1(C)C` [Compound 119], the IC50 came out at 0.22 nM.

On to `COC[C@@](C)(N)c1cnc(O[C@H]2C[C@H](CS(C)(=O)=O)C2)c2cnc(Nc3ccc4c(n3)[C@@H](C)[C@H](C)OC4=O)cc12` [Compound 120], for which the IC50 was determined as 0.52 nM.
